Measured values from patent US12678509B2, “Inhibitor of apoptosis (IAP) protein antagonists” (Sanford Burnham Prebys Medical Discovery Institute, priority 2019, dated 2026).

Legend:
MOLM 13 = assay: Cell viability (CellTiter-Glo), 6-day compound treatment; type: cell-based, Human; settings: Homo sapiens, MOLM-13, 144 h, read-out: MOLM 13 Viability 6 d IC50
Experimental: (§1) The compound 18a was tested in 16 different cell lines. For 6-day compound treatment 1700 cells per well were plated in a 384-well plate (Corning #781098) and incubated overnight at 37° C./5% CO2. The following day, compounds in 10-fold dilutions were added to the plates and the plates were incubated for 6 days. Afterwards, 20 μL CellTiter-Glo reagent (Promega, #G7570) was added to each well outside of the incubator and the plates were read for luminescence on a Spark® multimode microplate reader (Tecan). Data was fit in GraphPad Prism 8 to a nonlinear regression curve to determine the IC50 of the compounds. […]

SKOV-3 = assay: Cell viability (CellTiter-Glo), 48 hrs; type: cell-based; settings: Homo sapiens, SK-OV-3, 48 h, read-out: SKOV-3 Viability 48 h IC50
Experimental: One thousand seven hundred cells per well were plated in a 384 well plate and incubated overnight at 37° C./5% CO2. The following day, compounds in 10-fold dilutions were added to the plates and the plates returned to the incubator for 48 hrs. 48 hrs later, plates were removed to the bench and 20 μL CellTiter-Glo reagent was added to each well and the plates were read for luminescence on a Spark® multimode microplate reader (Tecan). Data were fit using PRISM to a nonlinear regression curve to determine the IC50 of the compounds.

AML-SH-074 = assay: Cell viability in patient derived AML samples (CellTiterGlo, 72 h); type: cell-based, human; settings: for IC50: Homo sapiens, 72 h, read-out: AML-SH-074 IC50; for AML-SH-074 Efficacy: patient derived AML sample AML-SH-074, 72 h, cell viability at max. concentration
Experimental: (§2) Patient AML samples were gathered (under IRB 13-6180) from Scripps MD Anderson, La Jolla, CA Fresh blood samples were subjected to gradient density centrifugation with Ficoll-Paque™ PLUS (17-1440-02, GE Healthcare) and peripheral blood mononuclear cells purified as per manufacturer's protocol.
(§3) 75 nL of 1000× serially diluted IAP inhibitors were spotted in triplicate onto 384-well tissue culture treated plates (Greiner) using a Labcyte Echo acoustic dispensing device. Patient-derived AML cells were maintained in mTeSR1^+1× supplements (Stemcell Technologies) and penicillin/streptomycin/L-glutamine (Omega Scientific Inc.) and Fungizone (HyClone). 25 μL of cell dilution were plated into 384-well plate containing the drugs and incubated for 72 h. Cell viability was assessed by adding 25 μL CellTiterGlo (Promega Corp.) on a Synergy 2 plate reader with Gen5 software (Biotek). % viability was calculated by normalizing luminescence to vehicle only controls (DMSO) in Microsoft Excel and plotted using GraphPad Prism 8. The IC50 values were calculated using log(inhibitor) vs. response—Variable slope (four parameters) equation. (FIG. 6)

AML-SH-075 = assay: as above; type: cell-based, human; settings: for IC50: Homo sapiens, 72 h, read-out: AML-SH-075 IC50; for AML-SH-075 Efficacy: patient derived AML sample AML-SH-075, 72 h, cell viability at max. concentration
Experimental: as §2, §3

AML-SH-065 = assay: as above; type: cell-based, human; settings: for IC50: Homo sapiens, 72 h, read-out: AML-SH-065 IC50; for AML-SH-065 Efficacy: patient derived AML sample AML-SH-065, 72 h, cell viability at max. concentration
Experimental: as §2, §3

[1] = system: latently infected cell line Jurkat 2D10; assay: HIV Jurkat 2D10 cells GFP+ assay (reversal of HIV latency); type: cell-based; settings: Homo sapiens, Jurkat, 48 h, read-out: Jurkat 2D10 GFP+ EC50
Experimental: Several compounds (Table 5) were tested for their efficacy in the reversal of HIV latency in the latently infected cell line Jurkat 2D10. Jurkat 2D10 cells were treated with different doses of the compounds, or one of the following compounds: BV-6, SM-164, Birinapant, LCL-161, GDC-0152, AT-406 for 48 hours. Reversal of HW latency was evaluated by analyzing GFP expression using flow cytometry. Induction of GFP expression was compared to baseline GFP levels detected in the absence of treatment.

[2] = Pharmacokinetic study in mice, snapshot PK; type: in vivo; settings: female, C57BL/6J, mouse, plasma, ip, one hour after i.p. injection of 10 mg/kg
Experimental: (§4) All animal procedures were approved by the Sanford Burnham Prebys Medical Discovery Institute Institutional Animal Care and Use Committee and were performed according to the NIH guidelines for the Care and Use of Laboratory Animals. Adult female C57BL/6J were purchased from JAX laboratories and housed with free access to food and water on a 12 h light/dark cycle. Compounds were formulated in 5% DMSO, 10% Tween-80, and 85% dH2O and injected intraperitoneally (i.p.) into mice at doses of 10 mg/kg. For snapshot PK analysis, blood samples were collected retro-orbitally one hour after injection and for the time course PK study, blood samples were collected at 15 min, 30 min, 1 h, 2 h, 4 h, 6 h, 24 h time points. For the blood samples plasma was separated by centrifugation. Plasma samples were extracted with acetonitrile:water 4:1 with 0.1% formic acid containing indometacin as an internal standard. Samples were centrifuged and supernatants were diluted with acetonitrile:water and analyzed via LC-MS/MS on a Shimadzu Nexera X2 HPLC coupled to an AB Sciex 6500 QTRAP.
Plasma exposure of selected compounds at 1 h compared.
Plasma levels of parent compound determined one hour after i.p. injection of 10 mg/kg

ML-IAP = target: T1, ML-IAP (Homo sapiens, UniProt Q96CA5); assay: Fluorescence polarization assay; type: binding; settings: SMAC-FITC probe, Ki calculated from IC50
T1 sequence (Q96CA5 1-298): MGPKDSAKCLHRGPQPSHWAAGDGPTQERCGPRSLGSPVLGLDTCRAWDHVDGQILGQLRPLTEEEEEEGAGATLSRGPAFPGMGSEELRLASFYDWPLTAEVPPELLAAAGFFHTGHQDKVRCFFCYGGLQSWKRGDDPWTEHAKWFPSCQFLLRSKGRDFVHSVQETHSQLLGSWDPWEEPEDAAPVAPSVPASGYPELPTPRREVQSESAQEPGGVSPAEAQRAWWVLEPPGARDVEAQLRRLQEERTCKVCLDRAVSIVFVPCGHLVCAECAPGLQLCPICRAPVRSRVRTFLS
Experimental: (§5) Binding of compounds to ML-IAP and BIR3 domain of cIAP1, cIAP2 and XIAP was determined by fluorescence polarization. Assay buffer was 100 mM KH2PO4 at pH 7.5, 50 μM ZnSO4, 1 mM TCEP (Tris(2-carboxyethyl)phosphine hydrochloride) and 50 nM SMAC-FITC probe (AbuRPF-K(5-Fam)-NH2) as described by Z. Nikolovska-Coleska et al.^9. cIAP1 and XIAP were present at 800 nM while cIAP2 and MLIAP were present at 1.5 μM. Compounds in 3-fold dilutions were added to the plates ranging from 30 μM to 1.5 nM. Assays were run in 384-well black plates read (Greiner Bio-One #784076) in an Analyst in fluorescence polarization mode with excitation at 485 nm and emission at 535 nm. Data was fit to a nonlinear regression curve in GraphPad Prism 8 to determine the IC50 values of the compounds. Ki's were then calculated from the IC50 values using equation: Ki=[I]50/([L]50/Kd+[P]0/Kd+1) formulated by Z. Nikolovska-Coleska et al.

BIR3 domain of cIAP2 = BIR3 domain of cIAP2 (Homo sapiens, UniProt Q13489); assay: Fluorescence polarization assay; type: binding; settings: SMAC-FITC probe, Ki calculated from IC50
Sequence of BIR3 domain of cIAP2 (Q13489 238-349 limits assumed): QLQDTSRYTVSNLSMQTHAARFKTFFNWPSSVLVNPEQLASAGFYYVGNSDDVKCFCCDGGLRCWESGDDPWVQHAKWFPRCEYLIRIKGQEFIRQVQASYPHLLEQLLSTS
Experimental: as §5

BIR3 domain of XIAP = BIR3 domain of XIAP (Homo sapiens, UniProt P98170); assay: Fluorescence polarization assay; type: binding; settings: SMAC-FITC probe, Ki calculated from IC50
Sequence of BIR3 domain of XIAP (P98170 241-356 limits assumed): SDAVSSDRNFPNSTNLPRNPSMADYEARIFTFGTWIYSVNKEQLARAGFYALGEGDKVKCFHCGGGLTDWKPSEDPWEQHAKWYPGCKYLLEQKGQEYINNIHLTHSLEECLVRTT
Experimental: as §5

BIR3 domain of cIAP1 = BIR3 domain of cIAP1 (Homo sapiens, UniProt Q13490); assay: Fluorescence polarization assay; type: binding; settings: SMAC-FITC probe, Ki calculated from IC50
Sequence of BIR3 domain of cIAP1 (Q13490 253-363 limits assumed): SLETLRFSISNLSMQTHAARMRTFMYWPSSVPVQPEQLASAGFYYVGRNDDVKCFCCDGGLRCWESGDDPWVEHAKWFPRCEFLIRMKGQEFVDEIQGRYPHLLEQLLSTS
Experimental: as §5

NB-4 = assay: Cell viability (CellTiter-Glo); type: cell-based, Human; settings: Homo sapiens, NB-4, 72 h, read-out: NB-4 Viability 72 h IC50
Experimental: as §1, with “The following day, compounds in 10-fold dilutions were added to the plates and the plates were incubated for 6 days.” left out

[3] = Pharmacokinetic study in mice, time course PK; type: in vivo; settings: female, C57BL/6J, mouse, IP dose 10 mg/kg, plasma
Experimental: as §4
In vivo pharmacokinetic data for compound 18m in mice. Compound was formulated in 5% DMSO, 10% Tween 80 and water and administered by intraperitoneal injection.

| SMILES | IC50 (MOLM 13) | IC50 (SKOV-3) | IC50 (AML-SH-074) | AML-SH-074 Efficacy (AML-SH-074) | IC50 (AML-SH-075) | AML-SH-075 Efficacy (AML-SH-075) | IC50 (AML-SH-065) | AML-SH-065 Efficacy (AML-SH-065) | EC50 [1] | concentration at 1 h [2] | Ki (ML-IAP) | Ki (BIR3 domain of cIAP2) | Ki (BIR3 domain of XIAP) | Ki (BIR3 domain of cIAP1) | IC50 (NB-4) | AUC(0-t) [3] | Cmax [3] | Tmax [3] | half-life ([3]; terminal half-life) |
| --- | --- | --- | --- | --- | --- | --- | --- | --- | --- | --- | --- | --- | --- | --- | --- | --- | --- | --- | --- |
| CN[C@@H](C)C(=O)N[C@H]1CCS[C@H]2CC(C)(C)[C@@H](C(=O)N[C@H]3c4ccccc4C[C@H]3OCC#Cc3ccc(CO[C@@H]4Cc5ccccc5[C@@H]4NC(=O)[C@H]4N5C(=O)[C@@H](NC(=O)[C@H](C)NC)CCS[C@H]5CC4(C)C)cc3)N2C1=O [Compound 18e, (2S)-1-{[(4S,7S,9aS)-7-{[(1S,2R)-2-({3-[4-({[(1S,2R)-1-({[(4S,7S,9aS)-8,8-Dimethyl-4-{[(2S)-2-(methylammonio)propanoyl]amino}-5-oxooctahydropyrrolo[2,1-b][1,3]thiazepin-7-yl]carbonyl}amino)-2,3-dihydro-1H-inden-2-yl]oxy}methyl)phenyl]prop-2-ynyl}oxy)-2,3-dihydro-1H-inden-1-yl]carbamoyl}-8,8-dimethyl-5-oxooctahydropyrrolo[2,1-b][1,3]thiazepin-4-yl]amino}-N-methyl-1-oxopropan-2-ammonium dichloride] | 0.1 to 1 µM | < 0.01 µM | 0.1 to 1 µM | I (I < 10%) | 1 to 10 µM | I (I < 10%) | 0.01 to 0.1 µM | I (I < 10%) | < 0.001 µM | 6.2 µM | 0.1 to 0.2 µM | 0.1 to 0.2 µM | ≤ 0.05 µM | 0.05 to 0.1 µM | 0.01 to 0.1 µM | – | – | – | – |
| CN[C@@H](C)C(=O)N[C@H]1CCS[C@H]2CC(C)(C)[C@@H](C(=O)N[C@H]3c4ccccc4C[C@H]3OCc3ccc(CO[C@@H]4Cc5ccccc5[C@@H]4NC(=O)[C@H]4N5C(=O)[C@@H](NC(=O)[C@H](C)NC)CCS[C@H]5CC4(C)C)cc3)N2C1=O [Compound 18g, (2S)-1-{[(4S,7S,9aS)-7-{[(1S,2R)-2-{[4-({[(1S,2R)-1-({[(4S,7S,9aS)-8,8-Dimethyl-4-{[(2S)-2-(methylammonio)propanoyl]amino}-5-oxooctahydropyrrolo[2,1-b][1,3]thiazepin-7-yl]carbonyl}amino)-2,3-dihydro-1H-inden-2-yl]oxy}methyl)benzyl]oxy}-2,3-dihydro-1H-inden-1-yl]carbamoyl}-8,8-dimethyl-5-oxooctahydropyrrolo[2,1-b][1,3]thiazepin-4-yl]amino}-N-methyl-1-oxopropan-2-ammonium dichloride] | 0.01 to 0.1 µM | < 0.01 µM | 0.1 to 1 µM | I (I < 10%) | 0.01 to 0.1 µM | I (I < 10%) | 0.01 to 0.1 µM | I (I < 10%) | 0.001 to 0.01 µM | 2.69 µM | 0.05 to 0.1 µM | 0.05 to 0.1 µM | ≤ 0.05 µM | ≤ 0.05 µM | < 0.01 µM | – | – | – | – |
| CC[C@H](NC)C(=O)N[C@H]1CCS[C@H]2CC(C)(C)[C@@H](C(=O)N[C@H]3c4ccccc4C[C@H]3OCC#CC#CCO[C@@H]3Cc4ccccc4[C@@H]3NC(=O)[C@H]3N4C(=O)[C@@H](NC(=O)[C@H](CC)NC)CCS[C@H]4CC3(C)C)N2C1=O [Compound 18m, [(1S)-1-{[(4S,7S,9aS)-7-{[(1S,2R)-2-[(6-{[(1S,2R)-1-[(4S,7S,9aS)-8,8-Dimethyl-4-[(2S)-2-(methylazaniumyl)butanamido]-5-oxo-octahydropyrrolo[2,1-b][1,3]thiazepine-7-amido]-2,3-dihydro-1H-inden-2-yl]oxy}hexa-2,4-diyn-1-yl)oxy]-2,3-dihydro-1H-inden-1-yl]carbamoyl}-8,8-dimethyl-5-oxo-octahydropyrrolo[2,1-b][1,3]thiazepin-4-yl]carbamoyl}propyl](methyl)azanium dichloride] | 0.01 to 0.1 µM | < 0.01 µM | 0.1 to 1 µM | I (I < 10%) | 0.01 to 0.1 µM | I (I < 10%) | < 0.01 µM | I (I < 10%) | 0.001 to 0.01 µM | 6.59 µM | 0.05 to 0.1 µM | 0.05 to 0.1 µM | ≤ 0.05 µM | ≤ 0.05 µM | – | 18.1 µM·h | 6.6 µM | 1 h | 3 h |
